Literature values, collected in PMC8451327, “Paradoxical Augmentation of Experimental Spondyloarthritis by RORC Inhibition in HLA-B27 Transgenic Rats” (Frontiers in Immunology, 2021).

Key:
intestinal inflammation = tested on: intestinal inflammation; set-up: method as in PMID 30972425
normal mice = tested on: normal mice; set-up: method as in PMID 30972425
[1] = tested on: ankylosing spondylitis (AS)
[2] = tested on: psoriatic arthritis (PsA)

Compound: COc1ccc2c(n1)CCN(C(=O)C1CC(CC(=O)O)C1)[C@H]2C(=O)Nc1cc(F)c2c(c1)CCC2(C)C (some centres unmarked) [TAK-828F]
- Gene expression of IL17A, IL17F and IL-22 (intestinal inflammation): suppressed/decreased
- Intestinal inflammation (intestinal inflammation): suppressed
- Th17 and Th17/Th1 cell population in mesenteric lymph nodes (intestinal inflammation): significantly reduced
- Numbers of Th17 cells and ILC3s in the lamina propria (normal mice): did reduce

Compound: Secukinumab: anti-IL-17A mAb
- Signs and symptoms of ankylosing spondylitis [1]: reduced
- Signs and symptoms of psoriatic arthritis [2]: reduced

Compound: ixekizumab: interleukin-17A specific monoclonal antibody
- Clinical efficacy in AS [1]: proven clinical efficacy
- Clinical efficacy in PsA [2]: proven clinical efficacy
